According to US20210346476A1, “Modified FVIII Apitope Peptides” (APITOPE INTERNATIONAL NV, priority 2012, published 2021):
No end group written: not given here.

Experiment: Direct dissolution of tagged peptides in aqueous solvent (PBS) at 4 mg/mL, NanoDrop
Type: physicochemical
Settings: 4 mg/mL in PBS vs DMSO control; FIG. 2
Protocol: For each test peptide and the parent peptides (PRCLT and DNIMV) two tubes were prepared at 4 mg/mL in either DMSO (control) or PBS.
Each tube was spun at full speed in a mini-centrifuge for 5 minutes. A 10 μL sample was removed from the top of each solution and the molecular weight and coefficient of absorption was recorded for each peptide.
The absorbance of the supernatant was measured using NanoDrop and the concentration calculated. In this Figure, greater disparity between the actual and expected concentration corresponds to lower relative solubility.

solubility in PBS compared to the parent peptides | Sequence
improved solubility in PBS | KEGPRCLTRYYSSFVNMEGKE [SEQ ID No. 10]
improved solubility in PBS | KEGDNIMVTFRNQASRPYGKE [SEQ ID No. 26]
improved solubility in PBS | KKGDNIMVTFRNQASRPYGKK [SEQ ID No. 17]
improved solubility in PBS | KEGPRCLTRYYSSFVNMEGKK [SEQ ID No. 9]
improved solubility in PBS | KKGPRCLTRYYSSFVNMEGKE [SEQ ID No. 2]
improved solubility in PBS | KEGDNIMVTFRNQASRPYGKK [SEQ ID No. 25]
improved solubility in PBS | KKGPRCLTRYYSSFVNMEGKK [SEQ ID No. 1]
improved solubility in PBS | KKGDNIMVTFRNQASRPYGKE [SEQ ID No. 18]
